Key:
MOLT-4 = experiment: Growth inhibition of human MOLT-4 cells assessed as reduction in cell viability measured after 48 hrs by SRB assay; assay type: functional
EKVX = experiment: Growth inhibition of human EKVX cells assessed as reduction in cell viability measured after 48 hrs by SRB assay; assay type: functional
HOP-62 = experiment: Growth inhibition of human HOP-62 cells assessed as reduction in cell viability measured after 48 hrs by SRB assay; assay type: functional
HOP-92 = experiment: Growth inhibition of human HOP-92 cells assessed as reduction in cell viability measured after 48 hrs by SRB assay; assay type: functional
NCI-H226 = experiment: Growth inhibition of human NCI-H226 cells assessed as reduction in cell viability measured after 48 hrs by SRB assay; assay type: functional
NCI-H23 = experiment: Growth inhibition of human NCI-H23 cells assessed as reduction in cell viability measured after 48 hrs by SRB assay; assay type: functional
NCI-H322M = experiment: Growth inhibition of human NCI-H322M cells assessed as reduction in cell viability measured after 48 hrs by SRB assay; assay type: functional
NCI-H460 = experiment: Growth inhibition of human NCI-H460 cells assessed as reduction in cell viability measured after 48 hrs by SRB assay; assay type: functional
NCI-H522 = experiment: Growth inhibition of human NCI-H522 cells assessed as reduction in cell viability measured after 48 hrs by SRB assay; assay type: functional
HCC 2998 = experiment: Growth inhibition of human HCC 2998 cells assessed as reduction in cell viability measured after 48 hrs by SRB assay; assay type: functional
HCT-15 = experiment: Growth inhibition of human HCT-15 cells assessed as reduction in cell viability measured after 48 hrs by SRB assay; assay type: functional
HT-29 = experiment: Growth inhibition of human HT-29 cells assessed as reduction in cell viability measured after 48 hrs by SRB assay; assay type: functional
SW-620 = experiment: Growth inhibition of human SW620 cells assessed as reduction in cell viability measured after 48 hrs by SRB assay; assay type: functional
SF-268 = experiment: Growth inhibition of human SF-268 cells assessed as reduction in cell viability measured after 48 hrs by SRB assay; assay type: functional
SF-295 = experiment: Growth inhibition of human SF-295 cells assessed as reduction in cell viability measured after 48 hrs by SRB assay; assay type: functional
SF-539 = experiment: Growth inhibition of human SF-539 cells assessed as reduction in cell viability measured after 48 hrs by SRB assay; assay type: functional
SNB-75 = experiment: Growth inhibition of human SNB-75 cells assessed as reduction in cell viability measured after 48 hrs by SRB assay; assay type: functional
LOX IMVI = experiment: Growth inhibition of human LOX IMVI cells assessed as reduction in cell viability measured after 48 hrs by SRB assay; assay type: functional
Malme-3M = experiment: Growth inhibition of human Malme-3M cells assessed as reduction in cell viability measured after 48 hrs by SRB assay; assay type: functional
M14 = experiment: Growth inhibition of human M14 cells assessed as reduction in cell viability measured after 48 hrs by SRB assay; assay type: functional
MDA-MB-435 = experiment: Growth inhibition of human MDA-MB-435 cells assessed as reduction in cell viability measured after 48 hrs by SRB assay; assay type: functional
SK-MEL-2 = experiment: Growth inhibition of human SK-MEL-2 cells assessed as reduction in cell viability measured after 48 hrs by SRB assay; assay type: functional
SK-MEL-28 = experiment: Growth inhibition of human SK-MEL-28 cells assessed as reduction in cell viability measured after 48 hrs by SRB assay; assay type: functional
SK-MEL-5 = experiment: Growth inhibition of human SK-MEL-5 cells assessed as reduction in cell viability measured after 48 hrs by SRB assay; assay type: functional
UACC-257 = experiment: Growth inhibition of human UACC-257 cells assessed as reduction in cell viability measured after 48 hrs by SRB assay; assay type: functional
UACC-62 = experiment: Growth inhibition of human UACC-62 cells assessed as reduction in cell viability measured after 48 hrs by SRB assay; assay type: functional
OVCAR-3 = experiment: Growth inhibition of human OVCAR-3 cells assessed as reduction in cell viability measured after 48 hrs by SRB assay; assay type: functional
OVCAR-4 = experiment: Growth inhibition of human OVCAR-4 cells assessed as reduction in cell viability measured after 48 hrs by SRB assay; assay type: functional
OVCAR-8 = experiment: Growth inhibition of human OVCAR-8 cells assessed as reduction in cell viability measured after 48 hrs by SRB assay; assay type: functional
NCI/ADR-RES = experiment: Growth inhibition of human NCI/ADR-RES cells assessed as reduction in cell viability measured after 48 hrs by SRB assay; assay type: functional
A498 = experiment: Growth inhibition of human A498 cells assessed as reduction in cell viability measured after 48 hrs by SRB assay; assay type: functional
ACHN = experiment: Growth inhibition of human ACHN cells assessed as reduction in cell viability measured after 48 hrs by SRB assay; assay type: functional
RXF 393 = experiment: Growth inhibition of human RXF 393 cells assessed as reduction in cell viability measured after 48 hrs by SRB assay; assay type: functional
SN12C = experiment: Growth inhibition of human SN12C cells assessed as reduction in cell viability measured after 48 hrs by SRB assay; assay type: functional
TK-10 = experiment: Growth inhibition of human TK-10 cells assessed as reduction in cell viability measured after 48 hrs by SRB assay; assay type: functional
UO-31 = experiment: Growth inhibition of human UO-31 cells assessed as reduction in cell viability measured after 48 hrs by SRB assay; assay type: functional
PC-3 = experiment: Growth inhibition of human PC-3 cells assessed as reduction in cell viability measured after 48 hrs by SRB assay; assay type: functional
DU-145 = experiment: Growth inhibition of human DU-145 cells assessed as reduction in cell viability measured after 48 hrs by SRB assay; assay type: functional
MCF7 = experiment: Growth inhibition of human MCF7 cells assessed as reduction in cell viability measured after 48 hrs by SRB assay; assay type: functional
MDA-MB-231 = experiment: Growth inhibition of human MDA-MB-231 cells assessed as reduction in cell viability measured after 48 hrs by SRB assay; assay type: functional
Hs-578T = experiment: Growth inhibition of human Hs-578T cells assessed as reduction in cell viability measured after 48 hrs by SRB assay; assay type: functional
T47D = experiment: Growth inhibition of human T47D cells assessed as reduction in cell viability measured after 48 hrs by SRB assay; assay type: functional
[1] = biological target: T1, Mitogen-activated protein kinase 8 (Homo sapiens, UniProt P45983); experiment: Inhibition of human JNK1 at 10 uM in presence of ATP relative to control
T1 sequence (P45983 whole entry): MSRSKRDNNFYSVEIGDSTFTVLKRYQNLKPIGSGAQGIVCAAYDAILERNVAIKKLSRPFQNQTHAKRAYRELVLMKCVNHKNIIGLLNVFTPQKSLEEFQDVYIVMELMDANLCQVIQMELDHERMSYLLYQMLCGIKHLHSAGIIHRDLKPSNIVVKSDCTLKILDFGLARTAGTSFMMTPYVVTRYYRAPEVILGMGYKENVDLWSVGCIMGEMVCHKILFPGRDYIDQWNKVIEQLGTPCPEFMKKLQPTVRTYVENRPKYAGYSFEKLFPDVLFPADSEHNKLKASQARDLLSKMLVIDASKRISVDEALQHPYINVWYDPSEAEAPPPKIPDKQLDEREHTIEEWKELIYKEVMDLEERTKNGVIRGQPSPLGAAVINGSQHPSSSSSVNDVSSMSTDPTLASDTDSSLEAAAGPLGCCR

[2] = biological target: Mitogen-activated protein kinase 9 (Homo sapiens, UniProt P45984); experiment: Inhibition of human JNK2 at 10 uM in presence of ATP relative to control
Sequence of Mitogen-activated protein kinase 9 (P45984 whole entry, looked up): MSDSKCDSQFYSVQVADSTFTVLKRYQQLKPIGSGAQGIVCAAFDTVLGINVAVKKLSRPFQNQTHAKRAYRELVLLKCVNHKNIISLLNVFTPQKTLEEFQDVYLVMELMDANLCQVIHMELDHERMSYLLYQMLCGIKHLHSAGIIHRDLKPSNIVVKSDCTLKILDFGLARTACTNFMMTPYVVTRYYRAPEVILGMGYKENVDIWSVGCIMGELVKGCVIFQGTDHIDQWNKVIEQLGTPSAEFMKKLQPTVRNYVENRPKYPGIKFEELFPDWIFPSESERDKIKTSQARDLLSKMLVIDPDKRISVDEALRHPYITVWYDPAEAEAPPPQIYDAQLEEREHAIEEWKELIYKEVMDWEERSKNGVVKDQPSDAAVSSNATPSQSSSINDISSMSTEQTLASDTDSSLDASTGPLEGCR

[3] = biological target: Mitogen-activated protein kinase 10 (Homo sapiens, UniProt P53779); experiment: Inhibition of human JNK3 at 10 uM in presence of ATP relative to control
Sequence of Mitogen-activated protein kinase 10 (P53779 whole entry): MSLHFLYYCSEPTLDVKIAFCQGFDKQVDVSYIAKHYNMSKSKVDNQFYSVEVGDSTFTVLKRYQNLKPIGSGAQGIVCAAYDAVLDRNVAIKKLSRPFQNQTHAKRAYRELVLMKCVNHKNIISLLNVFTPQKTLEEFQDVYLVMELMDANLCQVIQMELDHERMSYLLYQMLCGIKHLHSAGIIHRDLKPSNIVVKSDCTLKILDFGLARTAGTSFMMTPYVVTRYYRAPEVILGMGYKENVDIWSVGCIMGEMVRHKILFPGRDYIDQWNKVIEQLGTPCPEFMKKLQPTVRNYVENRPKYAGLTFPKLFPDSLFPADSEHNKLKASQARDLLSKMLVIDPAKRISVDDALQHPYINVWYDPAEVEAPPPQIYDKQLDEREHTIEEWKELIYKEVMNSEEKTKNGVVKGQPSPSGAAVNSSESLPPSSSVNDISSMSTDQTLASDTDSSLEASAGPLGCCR

[4] = biological target: T1, Mitogen-activated protein kinase 8; experiment: Inhibition of human JNK1 in presence of ATP

CC(C)(C)n1cc(-c2ccnc(NCCCNS(=O)(=O)c3ccc(Br)cc3)c2)c(-c2cccc(O)c2)n1
GI50 (MOLT-4): 2300 nM
GI50 (EKVX): 1950 nM
GI50 (HOP-62): 2050 nM
GI50 (HOP-92): 1560 nM
GI50 (NCI-H226): 2310 nM
GI50 (NCI-H23): 1830 nM
GI50 (NCI-H322M): 2310 nM
GI50 (NCI-H460): 1990 nM
GI50 (NCI-H522): 2130 nM
GI50 (HCC 2998): 1920 nM
GI50 (HCT-15): 1480 nM
GI50 (HT-29): 1420 nM
GI50 (SW-620): 1830 nM
GI50 (SF-268): 2400 nM
GI50 (SF-295): 1710 nM
GI50 (SF-539): 1700 nM
GI50 (SNB-75): 1760 nM
GI50 (LOX IMVI): 1770 nM
GI50 (Malme-3M): 1670 nM
GI50 (M14): 1780 nM
GI50 (MDA-MB-435): 1820 nM
GI50 (SK-MEL-2): 2130 nM
GI50 (SK-MEL-28): 1790 nM
GI50 (SK-MEL-5): 1520 nM
GI50 (UACC-257): 2010 nM
GI50 (UACC-62): 1590 nM
GI50 (OVCAR-3): 2150 nM
GI50 (OVCAR-4): 1910 nM
GI50 (OVCAR-8): 2430 nM
GI50 (NCI/ADR-RES): 2210 nM
GI50 (A498): 1330 nM
GI50 (ACHN): 1990 nM
GI50 (RXF 393): 1460 nM
GI50 (SN12C): 1610 nM
GI50 (TK-10): 2510 nM
GI50 (UO-31): 1660 nM
GI50 (PC-3): 1600 nM
GI50 (DU-145): 2100 nM
GI50 (MCF7): 1880 nM
GI50 (MDA-MB-231): 1740 nM
GI50 (Hs-578T): 2240 nM
GI50 (T47D): 2480 nM
inhibition [1]: 98.8%
inhibition [2]: 99.3%
inhibition [3]: 99.2%
IC50 [4]: 97.8 nM

CC(C)(C)n1cc(-c2ccnc(NCCCNS(=O)(=O)c3ccc(Cl)cc3)c2)c(-c2cccc(O)c2)n1
GI50 (MOLT-4): 1910 nM
GI50 (EKVX): 2040 nM
GI50 (HOP-62): 1740 nM
GI50 (HOP-92): 1490 nM
GI50 (NCI-H226): 2110 nM
GI50 (NCI-H23): 1680 nM
GI50 (NCI-H322M): 2460 nM
GI50 (NCI-H460): 1940 nM
GI50 (NCI-H522): 1920 nM
GI50 (HCC 2998): 1760 nM
GI50 (HCT-15): 1520 nM
GI50 (HT-29): 1440 nM
GI50 (SW-620): 1770 nM
GI50 (SF-268): 2180 nM
GI50 (SF-295): 1790 nM
GI50 (SF-539): 1650 nM
GI50 (SNB-75): 1370 nM
GI50 (LOX IMVI): 1730 nM
GI50 (Malme-3M): 1660 nM
GI50 (M14): 1720 nM
GI50 (MDA-MB-435): 1790 nM
GI50 (SK-MEL-2): 1920 nM
GI50 (SK-MEL-28): 1570 nM
GI50 (SK-MEL-5): 1440 nM
GI50 (UACC-257): 1860 nM
GI50 (UACC-62): 1650 nM
GI50 (OVCAR-3): 1890 nM
GI50 (OVCAR-4): 1940 nM
GI50 (OVCAR-8): 2220 nM
GI50 (NCI/ADR-RES): 1920 nM
GI50 (A498): 1510 nM
GI50 (ACHN): 1970 nM
GI50 (RXF 393): 1460 nM
GI50 (SN12C): 1650 nM
GI50 (TK-10): 2380 nM
GI50 (UO-31): 1890 nM
GI50 (PC-3): 1360 nM
GI50 (DU-145): 2750 nM
GI50 (MCF7): 1840 nM
GI50 (MDA-MB-231): 1870 nM
GI50 (Hs-578T): 1840 nM
GI50 (T47D): 1820 nM
inhibition [1]: 100%
inhibition [2]: 98.9%
inhibition [3]: 99.2%
IC50 [4]: 43.8 nM
